From patent publication US6444685B1, “N-(4-sulfonylaryl)Cyclylamine 2-hydroxyethylamines as beta-3 adrenergic receptor agonists” (Wyeth, priority 2000, dated 2002)
Structures can show the parent of a compound that is named as a salt.

Legend:
[1] = molecular target: T1, human β3 adrenergic receptor (Homo sapiens, UniProt P13945); assay: cAMP accumulation (SPA) in CHO cells transfected with human β3 adrenergic receptor; format: cell-based; conditions: for EC50: CHO cells expressing human β3-AR, cAMP, 30 min incubation, 10^−9 M to 10^−5 M, read-out: beta-3 EC50; for beta-3 (IA) maximal response relative to isoproterenol: IA = % activity compound / % activity isoproterenol at 10^−5 M, CHO human β3 cells
T1 construct: Full length β3 AR clones (402 amino acids) containing the last 6 amino acids of hβ3— AR are prepared; expressed in transfected cells; host or cells: CHO cells
T1 sequence (P13945 whole entry): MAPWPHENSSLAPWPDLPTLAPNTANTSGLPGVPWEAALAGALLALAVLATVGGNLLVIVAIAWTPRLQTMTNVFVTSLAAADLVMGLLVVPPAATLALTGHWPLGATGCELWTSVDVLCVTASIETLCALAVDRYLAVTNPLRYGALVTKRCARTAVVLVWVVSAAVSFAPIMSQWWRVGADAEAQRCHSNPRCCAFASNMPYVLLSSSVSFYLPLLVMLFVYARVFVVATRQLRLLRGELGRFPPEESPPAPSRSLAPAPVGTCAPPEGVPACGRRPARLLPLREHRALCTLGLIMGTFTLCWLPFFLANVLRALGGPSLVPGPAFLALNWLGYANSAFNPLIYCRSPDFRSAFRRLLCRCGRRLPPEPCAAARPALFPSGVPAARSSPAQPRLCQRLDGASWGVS
Procedure: (§1) The ability of compounds of this invention to treat or inhibit disorders related to insulin resistance or hyperglycemia was established with representative compounds of this invention in the following standard pharmacological test procedures, which measured the binding selectivity to the β1, β2, and β3 adrenergic receptors. Binding to the receptors was measured in Chinese Hamster ovary (CHO) cells that were transfected with adrenergic receptors. The following briefly summarizes the procedures used and results obtained.
Cloning of Human β3-AR Genomic DNA: cDNA was constructed by ligating four polymerase chain reaction (PCR) products using the following primers: an ATG-Narl fragment, sense primer 5′-[…]3′ and anti-sense primer 5′[…]3′; a Narl-Accl fragment, 5′[…]3′ as sense and 5′[…]3′ as anti-sense primer; an Accli-Styl fragment, sense primer 5′[…]3′ and anti-sense primer 5′[…]3′ and a Styl-TAG fragment, with sense primer 5′[…]3′ and anti-sense primer 5′[…]3′. The corresponding primer sequences are described in Mantzoros, C. S., et.al., Diabetes 45: 909-914 (1996). The four fragments are ligated into a pUC 18 plasmid (Gibco-BRL) and sequenced. Full length β3 AR clones (402 amino acids) containing the last 6 amino acids of hβ3— AR are prepared with the β3-βARpcDNA3from ATTC.
(§2) Binding Procedure: Clones expressing receptor levels of 70 to 110 fmoles/mg protein were used in the test procedures. CHO cells were grown in 24-well tissue culture plates in Dulbecco's Modified Eagle Media with 10% fetal bovine serum, MEM non-essential amino acids, Penicillin-Streptompycin and Geneticin. On the day of test procedure, growth medium was replaced with preincubation media (Dulbecco's Modified Eagle Media and incubated for 30 minutes at 37° C. Preincubation medium was replaced with 0.2 ml treatment medium containing DMEM media containing 250 μM IBMX (isobutyl-1-methylxantine) plus 1 mM ascorbic acid with test compound dissolved in DMSO. Test compounds were tested over a concentration range of 10^−9 M to 10^−5 M for β3 cells and 10^−8 to 10^−4 M for β1 and β2 transfected cells. Isoproterenol (10^−5 M) was used as an internal standard for comparison of activity. Cells were incubated at 37° C. on a rocker for 30 min with the β3 cells and 15 min for β1 and β2 cells. Incubation was stopped with the addition of 0.2N HCl and neutralized with 2.5N NaOH. The plates, containing the cells and neutralized media, were stored at −20 degrees celsius until ready to test for cAMP using the SPA test kit (Amersham).
(§3) Data Analysis and Results: Data collected from the SPA test procedure were analyzed as per cent of the maximal isoproterenol response at 10^−5 M. Activity curves were plotted using the SAS statistical and graphics software. EC50 values were generated for each compound and the maximal response (IA) developed for each compound is compared to the maximal response of isoproternol at 10^−5 M from the following formula:
(§4) IA=% activity compound/% activity isoproterenol

[2] = molecular target: T2, human β2-adrenergic receptor (Homo sapiens, UniProt P07550); assay: cAMP accumulation (SPA) in CHO cells transfected with human β2 adrenergic receptor; format: cell-based; conditions: for EC50: CHO cells transfected with human β2-AR, cAMP, 15 min incubation, 10^−8 to 10^−4 M, read-out: beta-2 EC50; for beta-2 (IA) maximal response relative to isoproterenol: IA = % activity compound / % activity isoproterenol at 10^−5 M, CHO human β2 cells
T2 construct: expressed in transfected cells; host or cells: CHO cells
T2 sequence (P07550 whole entry): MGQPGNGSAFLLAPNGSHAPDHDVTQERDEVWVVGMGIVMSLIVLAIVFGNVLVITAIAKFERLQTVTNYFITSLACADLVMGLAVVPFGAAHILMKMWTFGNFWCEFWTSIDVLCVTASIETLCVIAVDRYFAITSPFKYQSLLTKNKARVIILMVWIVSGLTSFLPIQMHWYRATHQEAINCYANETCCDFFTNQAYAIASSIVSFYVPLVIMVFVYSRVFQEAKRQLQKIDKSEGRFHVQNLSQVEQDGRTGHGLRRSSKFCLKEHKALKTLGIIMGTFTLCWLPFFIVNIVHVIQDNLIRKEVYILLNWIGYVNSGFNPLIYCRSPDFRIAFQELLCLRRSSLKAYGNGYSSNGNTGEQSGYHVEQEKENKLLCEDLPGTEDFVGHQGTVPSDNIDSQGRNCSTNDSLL
Procedure: as §1
(§5) Transfection of CHO cells with β1 and β2 adrenergic receptors: CHO cells were transfected with human β1- or β2-adrenergic receptors as described in Tate, K. M., Eur. J. Biochem., 196:357-361 (1991).
as §2, §3, §4

[3] = molecular target: T3, human β1-adrenergic receptor (Homo sapiens, UniProt P08588); assay: cAMP accumulation (SPA) in CHO cells transfected with human β1 adrenergic receptor; format: cell-based; conditions: for EC50: CHO cells transfected with human β1-AR, cAMP, 15 min incubation, 10^−8 to 10^−4 M, read-out: beta-1 EC50; for beta-1 (IA) maximal response relative to isoproterenol: IA = % activity compound / % activity isoproterenol at 10^−5 M, CHO human β1 cells
T3 construct: expressed in transfected cells; host or cells: CHO cells
T3 sequence (P08588 whole entry): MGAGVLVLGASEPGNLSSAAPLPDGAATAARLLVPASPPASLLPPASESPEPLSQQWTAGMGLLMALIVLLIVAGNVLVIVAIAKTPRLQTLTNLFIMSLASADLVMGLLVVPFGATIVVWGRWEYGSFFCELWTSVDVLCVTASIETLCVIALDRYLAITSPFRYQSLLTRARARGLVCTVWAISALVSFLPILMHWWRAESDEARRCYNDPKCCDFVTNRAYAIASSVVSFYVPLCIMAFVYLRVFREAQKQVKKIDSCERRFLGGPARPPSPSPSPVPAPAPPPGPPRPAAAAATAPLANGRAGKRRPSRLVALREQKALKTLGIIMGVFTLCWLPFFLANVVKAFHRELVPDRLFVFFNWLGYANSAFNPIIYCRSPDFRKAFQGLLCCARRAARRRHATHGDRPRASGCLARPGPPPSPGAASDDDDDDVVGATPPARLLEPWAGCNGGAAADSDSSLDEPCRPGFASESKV
Procedure: as §1, §5, §2, §3, §4

| SMILES | melting point | EC50 [1] | beta-3 (IA) maximal response relative to isoproterenol [1] | EC50 [2] | beta-2 (IA) maximal response relative to isoproterenol [2] | EC50 [3] | beta-1 (IA) maximal response relative to isoproterenol [3] |
| --- | --- | --- | --- | --- | --- | --- | --- |
| CS(=O)(=O)Nc1cc([C@@H](O)CNC2CCN(c3ccc(S(=O)(=O)NCC(=O)O)cc3)CC2)ccc1O (as salt: salt) [Example 53, 2-{[(4-{4-[((2R)-2-hydroxy-2-{4-hydroxy-3-[(methylsulfonyl)amino]phenyl}ethyl)amino]-1-piperidinyl}phenyl)sulfonyl]amino}acetic Acid] | 170 to 172 °C |  |  |  |  |  |  |
| CS(=O)(=O)Nc1cc([C@@H](O)CNC2CCN(c3ccc(S(=O)(=O)N(CC(=O)O)CC(=O)O)cc3)CC2)ccc1O (as salt: salt) [Example 55, 2-((Carboxymethyl)[(4-{4-[((2R)-2-hydroxy-2-{4-hydroxy-3-[(methylsulfonyl)amino]phenyl)ethyl)amino]-1-piperidinyl}phenyl)sulfonyl]amino}acetic Acid] | 163 to 166 °C |  |  |  |  |  |  |
| COc1ccc(NS(=O)(=O)c2ccc(N3CCC(NC[C@H](O)COc4ccc(OCc5ccccc5)cc4)CC3)cc2)cc1OC [Example 9, 4-{4-[(2S)-3-(4-Benzyloxy-phenoxy)-2-hydroxy-propylamino]-piperidin-1-yl}-N-(3,4-dimethoxy-phenyl)-benzenesulfonamide] | 113 to 121 °C |  |  |  |  |  |  |
| COc1ccc(NS(=O)(=O)c2ccc(N3CCC(NC[C@H](O)COc4cccc5[nH]c6ccccc6c45)CC3)cc2)cc1OC [Example 10, 4-{4-[(2S)-3-(9H-Carbazol-4-yloxy)-2-hydroxy-propylamino]-piperidin-1-yl}-N-(3,4-dimethoxy-phenyl)-benzenesulfonamide] | 58 to 64 °C | 0.1 µM | (0.45) |  |  |  |  |
| CS(=O)(=O)Nc1cc([C@@H](O)CNC2CCN(c3ccc(S(=O)(=O)N4CCCC4)cc3)CC2)ccc1O [Example 41, N-{2-Hydroxy-5-[(1R)-1-hydroxy-2-({1-[4-(1-pyrrolidinylsulfonyl)phenyl]-piperidinyl}-4-amino)ethyl]phenyl}methanesulfonamide] |  | 0.002 µM | (1) | 2 µM | (0.24) | 0.8 µM | (0.58) |
| CS(=O)(=O)Nc1cc([C@@H](O)CNC2CCN(c3ccc(S(=O)(=O)N4CCCCC4)cc3)CC2)ccc1O [Example 42, N-{2-Hydroxy-5-[(1R)-1-hydroxy-2-({1-[4-(1-piperidinylsulfonyl)phenyl]-piperidinyl}-4-amino)ethyl]phenyl}methanesulfonamide] |  | 0.001 µM | (1) | 0.37 µM | (0.35) | 1.32 µM | (0.69) |
| CCOC(=O)CN(C(C)C)S(=O)(=O)c1ccc(N2CCC(NC[C@H](O)c3ccc(O)c(NS(C)(=O)=O)c3)CC2)cc1 [Example 44] |  | 0.003 µM | (0.95) | 2 µM | (0.43) | 12 µM | (0.71) |
| CS(=O)(=O)Nc1cc([C@@H](O)CNC2CCN(c3ccc(S(=O)(=O)NCC(=O)O)cc3)CC2)ccc1O [Example 53, 2-{[(4-{4-[((2R)-2-hydroxy-2-{4-hydroxy-3-[(methylsulfonyl)amino]phenyl}ethyl)amino]-1-piperidinyl}phenyl)sulfonyl]amino}acetic Acid] |  | 0.034 µM | (1.2) |  | (0.23) |  | (0.24) |
| COC(=O)CNS(=O)(=O)c1ccc(N2CCC(NC[C@H](O)c3ccc(O)c(NS(C)(=O)=O)c3)CC2)cc1 [Example 57, Methyl 2-{[(4-{4-[((2R)-2-Hydroxy-2-{4-hydroxy-3-[(methylsulfonyl)amino]-phenyl}ethyl)amino]-1-piperidinyl}phenyl)sulfonyl]amino}acetate] |  | 0.006 µM | (0.85) |  | (0.18) |  | (0.18) |

Now from value to compound:

| melting point | EC50 [1] | beta-3 (IA) maximal response relative to isoproterenol [1] | EC50 [2] | beta-2 (IA) maximal response relative to isoproterenol [2] | EC50 [3] | beta-1 (IA) maximal response relative to isoproterenol [3] | SMILES |
| --- | --- | --- | --- | --- | --- | --- | --- |
| 60 °C |  |  |  |  |  |  | COC(=O)N(CC(=O)O)S(=O)(=O)c1ccc(N2CCC(NC[C@H](O)c3ccc(O)c(NS(C)(=O)=O)c3)CC2)cc1 (as salt: salt) [Example 60, [[(4-{4-[((2R)-2-Hydroxy-2-{4-hydroxy-3-[(methylsulfonyl)amino]phenyl}-ethyl)amino]piperidin-1-yl}phenyl)sulfonyl](methoxycarbonyl)amino]acetic Acid] |
| 80 to 82 °C |  |  |  |  |  |  | CS(=O)(=O)Nc1cc([C@@H](O)CNC2CCN(c3ccc(S(=O)(=O)N(CC(=O)O)Cc4cc(F)ccc4F)cc3)CC2)ccc1O (as salt: salt) [Example 63, 2-{(2,5-Difluorobenzyl)[(4-{4-[((2R)-2-hydroxy-2-{4-hydroxy-3-[(methylsulfonyl)-amino]phenyl}ethyl)amino]-1-piperidinyl}phenyl)sulfonyl]amino}acetic acid] |
| 131 °C (dec.) |  |  |  |  |  |  | CS(=O)(=O)Nc1cc([C@@H](O)CNC2CCN(c3ccc(S(=O)(=O)N4CCN(CC(=O)O)CC4)cc3)CC2)ccc1O (as salt: sodium) [Example 65] |
|  | 0.021 µM | (1.1) | 10 µM | (0.21) | 10 µM | (0.18) | COC(=O)N(CC(=O)O)S(=O)(=O)c1ccc(N2CCC(NC[C@H](O)c3ccc(O)c(NS(C)(=O)=O)c3)CC2)cc1 [Example 60, [[(4-{4-[((2R)-2-Hydroxy-2-{4-hydroxy-3-[(methylsulfonyl)amino]phenyl}-ethyl)amino]piperidin-1-yl}phenyl)sulfonyl](methoxycarbonyl)amino]acetic Acid] |
|  | 0.005 µM | (0.91) |  | (0.15) | 10 µM | (0.88) | CS(=O)(=O)Nc1cc([C@@H](O)CNC2CCN(c3ccc(S(=O)(=O)N(CC(=O)O)Cc4cc(F)ccc4F)cc3)CC2)ccc1O [Example 63, 2-{(2,5-Difluorobenzyl)[(4-{4-[((2R)-2-hydroxy-2-{4-hydroxy-3-[(methylsulfonyl)-amino]phenyl}ethyl)amino]-1-piperidinyl}phenyl)sulfonyl]amino}acetic acid] |
|  | 0.16 µM | (0.93) | 16 µM | (0.67) |  | (0.23) | CS(=O)(=O)Nc1cc([C@@H](O)CNC2CCN(c3ccc(S(=O)(=O)N4CCN(CC(=O)O)CC4)cc3)CC2)ccc1O [Example 65] |
|  | 0.005 µM | (0.96) |  | (0.17) | 1 µM | (0.48) | CC(C)(C)OC(=O)CN(Cc1cc(F)ccc1F)S(=O)(=O)c1ccc(N2CCC(NC[C@H](O)c3ccc(O)c(NS(C)(=O)=O)c3)CC2)cc1 [Example 67, tert-Butyl {(2,5-difuorobenzyl)[(4-{4-[((2R)-2-hydroxy-2-{4-hydroxy-3-[(methylsulfonyl)amino]phenyl}ethyl)amino]piperidin-1-yl}phenyl)sulfonyl]-amino}acetate] |
